In patent US9447020B2, “Polyunsaturated fatty acid monoglycerides, derivatives, and uses thereof” (SCF PHARMA INC., priority 2013, dated 2016):

What was measured:
SW620 cells = assay: Effect on growth of SW620 cells (cell counting, trypan blue); type: cell-based, Human; conditions: for IC50: SW620 colorectal carcinoma cells, 48 h treatment, 0.2% FBS, cumulative concentration response curve
Description: Human SW620 colorectal carcinoma cells were obtained from the American Type Culture Collection (ATCC) and maintained in Leitbovitz's L-15 medium containing 10% FBS, 10 mM HEPES, 2.2 g/L Na2C03 and 10 units/ml penicillin, 100 μg/ml streptomycin. Cells were grown in a 5% CO2 incubator at 37° C. A predefined number of SW620 cells were allowed to grow in 24 wells plates (1×10^4 cells/well) for 3 days until cells reached 80% confluence. Then, cells were starved in Leitbovitz's medium without FBS for 8 h. Then, the culture medium was replaced with Leitbovitz+0.2% FBS and different concentrations of MAG-DHA, MAG-EPA or MAG-DPA (0.1, 0.3, 1, 3, 10, 30 and 100 μM) were added to each well. Culture media were changed every 24 h and cells were treated for 48 h. After 48, the medium was removed from the culture plates and 0.05% trypsing EDTA was used to detach the cells from the surface of the culture plates. The harvested cells were counted, both the viable and dead ones, using a Countess Automated Cell Counter (Invitrogen Inc.). Briefly, for each condition an appropriated cell dilution was prepared from the harvested cells and an aliquot was mixed with an equal volume of 0.4% trypan blue, and 10 μl was transferred into each side of a Countess™ chamber slide. All concentrations tested were performed in triplicata and were representative of 5 independent experiment.
FIG. 2 represents an in vitro cumulative concentration response curves (CCRC) of MAG-DHA, MAG-EPA and MAG-DPA ([…]) on SW620 cell growth.

[1] = system: A549 human cancer cell line; assay: In vivo tumor xenograft experiment: tumor tissue fatty acid composition after oral MAG-DHA; conditions: A549 xenografts in female CD-1 nude mice; per os 618 mg/kg daily for 48 days; tumors harvested 24 hours after treatment completion; HPLC-MS
Description: Female CD-1 nude mice were obtained from Charles River Laboratories (Montreal, Qc, Canada). All studies involving mice were approved by the institutional animal care committee (Protocol: #237-10). Human A549 xenografts were established in 4-week-old female CD-1 nude mice. Mice were inoculated with 0.2 ml of a solution of 1×10^6 A549 cells subcutaneously on the right flank. Mice were randomly assigned into 3 groups, control (untreated), corn oil and MAG-DHA (CA2672513, CA2677670) treated (n=6 per group). Corn oil and MAG-DHA were administrated per os (618 mg/kg) daily following cell inoculation. Treatments were continued for 48 days. Mice were sacrificed when tumor volume reached ≈1.5 cm3 in the control group. Tumor tissues were harvested 24 hours after treatment completion. Tumor tissue fatty acids compositions were measured using a high-performance liquid chromatography (HPLC)-MS method [Gagne S and al. J Lipid Res 2007 January; 48(1):252-9] modified to detect complete fatty acid composition. Data were acquired in SIM mode corresponding to the following fatty acids: C20:4 (AA), C20:5 (EPA), C22:5 (DPA), C22:6 (DHA). The linear calibration curves were obtained in the concentration range of 2 to 500 μg/ml
FIG. 1 represents the fatty acids compositions of tumors after MAG-DHA oral supplementation.

IC50 (SW620 cells) | fatty acids compositions of tumors (EPA, DHA, DPA) compared to control and corn oil groups [1] | IC50 (SW620 cells; Homo sapiens, SW-620, 48 h) | Structure (SMILES) | times more active than MAG-EPA or MAG-DHA (SW620 cells; SW620 cell growth, comparison of IC50 values)
2900 nM | significant increase in EPA, DHA and DPA |  | CC/C=C\C/C=C\C/C=C\C/C=C\C/C=C\CCCCCC(=O)OCC(O)CO (stereo not drawn) [MAG-DHA, sn1(3)-all-cis-4,7,10,13,16,19-docosahexaenoylglyceride] | 
370 nM |  |  | CC/C=C\C/C=C\C/C=C\C/C=C\C/C=C\CCCCCC(=O)OCC(O)CO (stereo not drawn) [MAG-DPA, sn1(3)-all-cis-7,10,13,16,19-docosapentaenoylglyceride] | 10 times
 |  | 3200 nM | CC/C=C\C/C=C\C/C=C\C/C=C\C/C=C\CCCC(=O)OCC(O)CO (stereo not drawn) [MAG-EPA, sn1(3)-all-cis-5,8,11,14,17-eicosapentaenoylglyceride] | 
